Laboratory results reported in US9234000B2, “Benzylamine derivatives as inhibitors of plasma kallikrein” (KalVista Pharmaceuticals Limited, priority 2011, dated 2016).
Read-outs that look alike come from different tables or passages of the source.

What was measured:
physchem = details: pH 7
Experimental: Determination of the Kinetic Solubility in Phosphate Buffer
After shaking for approximately 30 seconds the reduction in light transmission of these samples, at 650 nm, was measured (Molecular Devices Spectromax UV/visible spectrophotometer). A second measurement was taken at approximately 30 seconds later.

Human plasma kallikrein = Human plasma kallikrein (Homo sapiens (Human), UniProt P03952); assay: Determination of the IC50 for plasma kallikrein; format: biochemical; details: 37° C., read-out: IC50 (human PKal)
Summary of the method: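 Human plasma kallikrein incubated at 37° C with fluorogenic substrate H-DPro-Phe-Arg-AFC and varying compound concentrations. Initial reaction rate followed by absorbance change at 410 nm to give residual activity and IC50.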

Human KLK1 = Human KLK1 (Homo sapiens (Human), UniProt P06870); assay: Determination of the IC50 for KLK1; format: biochemical; details: Human KLK1, 37° C., substrate H-DVal-Leu-Arg-AFC; Table 13
Summary of the method: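 hKLK1 + H-DVal-Leu-Arg-AFC, 37° C, varied cpd conc. Initial rate by A410 change → residual activity → IC50.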

[1] = fluorogenic substrate H-DPro-Phe-Arg-AFC

Chain of Human plasma kallikrein (P03952 391-638): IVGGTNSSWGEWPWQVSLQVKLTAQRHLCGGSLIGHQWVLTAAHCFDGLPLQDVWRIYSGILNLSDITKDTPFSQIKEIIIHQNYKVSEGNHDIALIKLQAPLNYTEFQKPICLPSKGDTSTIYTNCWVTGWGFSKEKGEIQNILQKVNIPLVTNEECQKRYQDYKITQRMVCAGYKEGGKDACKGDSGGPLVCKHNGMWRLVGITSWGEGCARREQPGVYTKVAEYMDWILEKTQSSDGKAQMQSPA
Chain of Human plasma kallikrein (P03952 20-390 partner): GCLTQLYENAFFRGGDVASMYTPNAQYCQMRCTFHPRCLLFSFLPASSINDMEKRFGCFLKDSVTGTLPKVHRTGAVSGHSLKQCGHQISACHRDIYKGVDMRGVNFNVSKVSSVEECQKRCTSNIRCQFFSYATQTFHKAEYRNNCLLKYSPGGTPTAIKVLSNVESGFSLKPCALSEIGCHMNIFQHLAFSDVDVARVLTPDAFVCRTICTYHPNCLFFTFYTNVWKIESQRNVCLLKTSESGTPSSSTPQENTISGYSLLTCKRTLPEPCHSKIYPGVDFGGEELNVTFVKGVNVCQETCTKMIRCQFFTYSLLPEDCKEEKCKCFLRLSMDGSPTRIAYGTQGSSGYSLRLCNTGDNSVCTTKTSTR
Chain of Human KLK1 (P06870 25-262): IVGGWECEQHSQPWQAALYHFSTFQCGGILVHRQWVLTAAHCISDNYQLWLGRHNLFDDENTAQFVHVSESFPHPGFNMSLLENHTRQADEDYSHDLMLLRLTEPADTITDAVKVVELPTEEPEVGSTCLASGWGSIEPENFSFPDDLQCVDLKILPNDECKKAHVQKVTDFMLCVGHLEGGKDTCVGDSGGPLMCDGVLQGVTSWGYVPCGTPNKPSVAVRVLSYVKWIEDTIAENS

solubility in PO4 buffer (physchem) [µM] | IC50 (Human plasma kallikrein; [1]) [nM] | IC50 (Human plasma kallikrein; substrate H-DPro-Phe-Arg-AFC) [nM] | IC50 (Human KLK1) [nM] | SMILES
> 235 | – | – | – | NCc1ccc(CNC(=O)[C@H](Cc2ccccc2)NC(=O)[C@H](N)CC2CCCCC2)cc1 [Example 8, (R)-2-Amino-N-[(S)-1-(4-aminomethyl-benzylcarbamoyl)-2-phenyl-ethyl]-3-cyclohexyl-propionamide]
– | – | 284 | > 10000 | CCOc1ccc(C[C@@H](NC(=O)c2ccccc2)C(=O)N[C@@H](Cc2ccncc2)C(=O)NCc2ccc(CN)cc2)cc1 [Example 147, N-[(R)-1-[(S)-1-(4-Aminomethyl-benzylcarbamoyl)-2-pyridin-4-yl-ethylcarbamoyl]-2-(4-ethoxy-phenyl)-ethyl]-benzamide]
– | – | 91 | > 10000 | CCOc1ccc(C[C@@H](NC(=O)c2ccccc2)C(=O)N[C@@H](Cc2cccc(F)c2)C(=O)NCc2ccc(CN)cc2)cc1 [Example 149, N-[(R)-1-[(S)-1-(4-Aminomethyl-benzylcarbamoyl)-2-(3-fluoro-phenyl)-ethylcarbamoyl]-2-(4-ethoxy-phenyl)-ethyl]-benzamide]
– | – | 1080 | > 10000 | CCOc1ccc(C[C@@H](NC(=O)c2ccccc2)C(=O)N[C@@H](Cc2ccccc2)C(=O)NCc2ccc(CN)c(C(F)(F)F)c2)cc1 [Example 156, N-[(R)-1-[(S)-1-(4-Aminomethyl-3-trifluoromethyl-benzylcarbamoyl)-2-phenyl-ethylcarbamoyl]-2-(4-ethoxy-phenyl)-ethyl]-benzamide]
– | – | 64 | > 10000 | CCOc1ccc(C[C@@H](NC(=O)c2ccc(Cl)cc2)C(=O)N[C@@H](Cc2ccccn2)C(=O)NCc2ccc(CN)cc2)cc1 [Example 163, N-[(R)-1-[(S)-1-(4-Aminomethyl-benzylcarbamoyl)-2-pyridin-2-yl-ethylcarbamoyl]-2-(4-ethoxy-phenyl)-ethyl]-4-chloro-benzamide]
– | – | 50 | > 10000 | CCOc1ccc(C[C@@H](NC(=O)c2ccc(C)cc2)C(=O)N[C@@H](Cc2ccccn2)C(=O)NCc2ccc(CN)cc2)cc1 [Example 164, N-[(R)-1-[(S)-1-(4-Aminomethyl-benzylcarbamoyl)-2-pyridin-2-yl-ethylcarbamoyl]-2-(4-ethoxy-phenyl)-ethyl]-4-methyl-benzamide]
– | – | 262 | > 10000 | CCOc1ccc(C[C@@H](NC(=O)CC)C(=O)N[C@@H](Cc2ccccn2)C(=O)NCc2ccc(CN)cc2)cc1 [Example 166, (R)-N-[(S)-1-(4-Aminomethyl-benzylcarbamoyl)-2-pyridin-2-yl-ethyl]-3-(4-ethoxy-phenyl)-2-propionylamino-propionamide]
– | – | 51 | > 10000 | CCOc1ccc(C[C@@H](NC(=O)CC)C(=O)N[C@@H](Cc2cccnc2)C(=O)NCc2ccc(CN)cc2)cc1 [Example 170, (R)-N-[(S)-1-(4-Aminomethyl-benzylcarbamoyl)-2-pyridin-3-yl-ethyl]-3-(4-ethoxy-phenyl)-2-propionylamino-propionamide]
– | – | 123 | 9400 | CCOc1ccc(C[C@@H](NC(=O)c2ccncc2)C(=O)N[C@@H](Cc2ccc(Cl)c(Cl)c2)C(=O)NCc2ccc(CN)cc2)cc1 [Example 171, N-[(R)-1-[(S)-1-(4-Aminomethyl-benzylcarbamoyl)-2-(3,4-dichloro-phenyl)-ethylcarbamoyl]-2-(4-ethoxy-phenyl)-ethyl]-isonicotinamide]

Further lines, the compound ahead of its results:

SMILES | solubility in PO4 buffer (physchem) [µM] | IC50 (Human plasma kallikrein; [1]) [nM] | IC50 (Human plasma kallikrein; substrate H-DPro-Phe-Arg-AFC) [nM] | IC50 (Human KLK1) [nM]
CCOc1ccc(C[C@@H](NS(C)(=O)=O)C(=O)N[C@@H](Cc2ccccc2)C(=O)NCc2ccc(CN)cc2)cc1 [Example 2, (R)—N—[(S)-1-(4-Aminomethyl-benzylcarbamoyl)-2-phenyl-ethyl]-3-(4-ethoxy-phenyl)-2-methanesulfonylamino-propionamide] | > 235 | 820 | – | –
CCC(=O)N[C@H](CC1CCCCC1)C(=O)N[C@@H](Cc1ccccc1)C(=O)NCc1ccc(CN)cc1 [Example 10, (S)-N-(4-Aminomethyl-benzyl)-2-((R)-3-cyclohexyl-2-propionylamino-propionylamino)-3-phenyl-propionamide] | > 235 | 7200 | – | –
CS(=O)(=O)N[C@H](CC1CCCCC1)C(=O)N[C@@H](Cc1ccccc1)C(=O)NCc1ccc(CN)cc1 [Example 11, (R)-N-[(S)-1-(4-Aminomethyl-benzylcarbamoyl)-2-phenyl-ethyl]-3-cyclohexyl-2-methanesulfonylamino-propionamide] | > 235 | 1700 | – | –
NCc1ccc(CNC(=O)[C@H](Cc2ccccc2)NC(=O)[C@@H](Cc2ccccc2)NC(=O)c2ccccc2)cc1 [Example 139, N-{(R)-1-[(S)-1-(4-Aminomethyl-benzylcarbamoyl)-2-phenyl-ethylcarbamoyl]-2-phenyl-ethyl}-benzamide] | – | – | 1140 | > 10000
CCOc1ccc(C[C@@H](NC(=O)c2ccccc2)C(=O)N[C@@H](Cc2ccc(Cl)cc2)C(=O)NCc2ccc(CN)cc2)cc1 [Example 142, N-[(R)-1-[(S)-1-(4-Aminomethyl-benzylcarbamoyl)-2-(4-chloro-phenyl)-ethylcarbamoyl]-2-(4-ethoxy-phenyl)-ethyl]-benzamide] | – | – | 96 | > 10000
CCOc1ccc(C[C@@H](NC(=O)c2ccccc2)C(=O)N[C@@H](Cc2cccc(C(F)(F)F)c2)C(=O)NCc2ccc(CN)cc2)cc1 [Example 144, N-[(R)-1-[(S)-1-(4-Aminomethyl-benzylcarbamoyl)-2-(3-trifluoromethyl-phenyl)-ethylcarbamoyl]-2-(4-ethoxy-phenyl)-ethyl]-benzamide] | – | – | 340 | > 10000
CCOc1ccc(C[C@@H](NC(=O)c2ccccc2)C(=O)N[C@@H](Cc2ccc(OC)cc2)C(=O)NCc2ccc(CN)cc2)cc1 [Example 146, N-[(R)-1-[(S)-1-(4-Aminomethyl-benzylcarbamoyl)-2-(4-methoxy-phenyl)-ethylcarbamoyl]-2-(4-ethoxy-phenyl)-ethyl]-benzamide] | – | – | 232 | > 10000
CCOc1ccc(C[C@@H](NC(=O)c2ccccc2)C(=O)N[C@@H](Cc2ccc(C(F)(F)F)cc2)C(=O)NCc2ccc(CN)cc2)cc1 [Example 148, N-[(R)-1-[(S)-1-(4-Aminomethyl-benzylcarbamoyl)-2-(4-trifluoromethyl-phenyl)-ethylcarbamoyl]-2-(4-ethoxy-phenyl)-ethyl]-benzamide] | – | – | 934 | > 10000
CCOc1ccc(C[C@@H](NC(=O)c2ccncc2)C(=O)N[C@@H](Cc2ccc(F)c(F)c2)C(=O)NCc2ccc(CN)cc2)cc1 [Example 161, N-[(R)-1-[(S)-1-(4-Aminomethyl-benzylcarbamoyl)-2-(3,4-difluoro-phenyl)-ethylcarbamoyl]-2-(4-ethoxy-phenyl)-ethyl]-isonicotinamide] | – | – | 49 | 6900
CCOc1ccc(C[C@@H](NC(=O)c2ccccn2)C(=O)N[C@@H](Cc2ccc(Cl)c(Cl)c2)C(=O)NCc2ccc(CN)cc2)cc1 [Example 165, Pyridine-2-carboxylic acid [(R)-1-[(S)-1-(4-aminomethyl-benzylcarbamoyl)-2-(3,4-dichloro-phenyl)-ethylcarbamoyl]-2-(4-ethoxy-phenyl)-ethyl]-amide] | – | – | 70 | > 10000
CCOc1ccc(C[C@@H](NC(=O)c2ccncc2)C(=O)N[C@@H](Cc2ccccc2)C(=O)NCc2ccc(CN)c(F)c2)cc1 [Example 167, N-[(R)-1-[(S)-1-(4-Aminomethyl-3-fluoro-benzylcarbamoyl)-2-phenyl-ethylcarbamoyl]-2-(4-ethoxy-phenyl)-ethyl]-isonicotinamide] | – | – | 80 | > 10000
CCOc1ccc(C[C@@H](NC(=O)c2ccccn2)C(=O)N[C@@H](Cc2ccccc2)C(=O)NCc2ccc(CN)c(F)c2)cc1 [Example 168, Pyridine-2-carboxylic acid [(R)-1-[(S)-1-(4-aminomethyl-3-fluoro-benzylcarbamoyl)-2-phenyl-ethylcarbamoyl]-2-(4-ethoxy-phenyl)-ethyl]-amide] | – | – | 76 | > 10000
CCOc1ccc(C[C@@H](NC(=O)c2cccs2)C(=O)N[C@@H](Cc2ccc(Cl)c(Cl)c2)C(=O)NCc2ccc(CN)cc2)cc1 [Example 169, Thiophene-2-carboxylic acid [(R)-1-[(S)-1-(4-aminomethyl-benzylcarbamoyl)-2-(3,4-dichloro-phenyl)-ethylcarbamoyl]-2-(4-ethoxy-phenyl)-ethyl]-amide] | – | – | 44 | 9900
CCOc1ccc(C[C@@H](NC(=O)CC(F)(F)F)C(=O)N[C@@H](Cc2ccc(Cl)c(Cl)c2)C(=O)NCc2ccc(CN)cc2)cc1 [Example 172, N-[(R)-1-[(S)-1-(4-Aminomethyl-benzylcarbamoyl)-2-(3,4-dichloro-phenyl)-ethylcarbamoyl]-2-(4-ethoxy-phenyl)-ethyl]-3,3,3-trifluoro-propionamide] | – | – | 881 | > 10000
CCOc1ccc(C[C@@H](NC(=O)c2ccccc2)C(=O)N[C@@H](Cc2c[nH]cn2)C(=O)NCc2ccc(CN)cc2)cc1 [Example 177, N-[(R)-1-[(S)-1-(4-Aminomethyl-benzylcarbamoyl)-2-(1H-imidazol-4-yl)-ethylcarbamoyl]-2-(4-ethoxy-phenyl)-ethyl]-benzamide] | – | – | 457 | > 10000
CCOc1ccc(C[C@@H](NC(=O)c2ccccc2)C(=O)N[C@@H](Cc2ccccc2F)C(=O)NCc2ccc(CN)cc2)cc1 [Example 180, N-[(R)-1-[(S)-1-(4-Aminomethyl-benzylcarbamoyl)-2-(2-fluoro-phenyl)-ethylcarbamoyl]-2-(4-ethoxy-phenyl)-ethyl]-benzamide] | – | – | 73 | > 10000
